Measurements from ChEMBL document CHEMBL6177970, “Semisynthetic Derivatives of Perovskone: Development of a Promising Class of Antiprotozoal Lead Compounds” (J Nat Prod, 2025).
Blank lines part the entries; values can stand above or below the compound they belong to.

Tests used:
Trypanosoma cruzi = assay: Antiprotozoal activity against Trypanosoma cruzi Tulahuen C2C4 intracellular amastigotes measured after 96 hrs by inverted microscopy; format: functional, organism-based; conditions: Tulahuen C2C4, 96 h
[1] = Selectivity index, ratio of IC50 for cytotoxicity against rat myoblast L6 cells to IC50 for antileishmanial activity against axenically grown amastigotes Leishmania donovani MHOM-ET-67/L82; format: toxicity, cell-based; conditions: read-out: Selectivity Index
[2] = Selectivity index, ratio of IC50 for cytotoxicity against rat myoblast L6 cells to IC50 for antiprotozoal activity against Trypanosoma cruzi Tulahuen C2C4 intracellular amastigotes; format: toxicity, cell-based; conditions: read-out: Selectivity Index
[3] = Cytotoxicity against rat myoblast L6 cells measured after 72 hrs by inverted microscopy; format: toxicity, cell-based
[4] = Selectivity index, ratio of IC50 for cytotoxicity against rat myoblast L6 cells to IC50 for antiprotozoal activity against Trypanosoma brucei rhodesiense STIB900 trypomastigotes; format: toxicity, cell-based; conditions: read-out: Selectivity Index
Leishmania donovani = assay: Antileishmanial activity against axenically grown amastigotes Leishmania donovani MHOM-ET-67/L82 measured after 72 hrs by inverted microscopy; format: functional, organism-based; conditions: MHOM-ET-67/L82, 72 h
Plasmodium falciparum = assay: Antiplasmodial activity against Plasmodium falciparum NF54 intraerythrocytic forms measured after 72 hrs by 3H-hypoxanthine based liquid scintillation counting analysis; format: functional, organism-based
[5] = Selectivity index, ratio of IC50 for cytotoxicity against rat myoblast L6 cells to IC50 for antiplasmodial activity against Plasmodium falciparum NF54 intraerythrocytic forms; format: toxicity, cell-based; conditions: read-out: Selectivity Index
[6] = system: Trypanosoma brucei rhodesiense; assay: Antiprotozoal activity against Trypanosoma brucei rhodesiense STIB900 trypomastigotes measured after 72 to 74 hrs; format: functional, organism-based

SMILES: O=C(Cn1ccnc1[N+](=O)[O-])NCc1ccccc1 [BENZNIDAZOLE]
- IC50 (Trypanosoma cruzi): 2.61 µM

SMILES: CC(C)C1=C2OC(C)(C)[C@@H]3CC4[C@H](C)[C@@H](OC(=O)CCC(=O)O)C[C@@]5(CC[C@H]6C(C)(C)CCC[C@]67C[C@]45[C@@]23O7)C1=O (some centres undefined)
- selectivity ratio [1]: 22
- selectivity ratio [2]: 1.4
- IC50 at 72 h [3]: 9.7 µM
- selectivity ratio [4]: 0.4
- IC50 (Leishmania donovani): 0.44 µM
- IC50 (Plasmodium falciparum): 5.6 µM
- IC50 (Trypanosoma cruzi): 7 µM
- selectivity ratio [5]: 1.7
- IC50 [6]: 24.4 µM

SMILES: CC(C)C1=C2OC(C)(C)[C@@H]3CC4[C@@H](C)[C@H](B(F)F)C[C@@]5(CC[C@H]6C(C)(C)CCC[C@]67C[C@]45[C@@]23O7)C1=O (some centres undefined)
- selectivity ratio [1]: 7.3
- selectivity ratio [2]: 2.9
- IC50 at 72 h [3]: 35 µM
- selectivity ratio [4]: 1.4
- IC50 (Leishmania donovani): 4.8 µM
- IC50 (Plasmodium falciparum): 0.8 µM
- IC50 (Trypanosoma cruzi): 12 µM
- selectivity ratio [5]: 43.8
- IC50 [6]: 24.4 µM

SMILES: CC1=C2C[C@H]3C(C)(C)OC4=C(C(C)C)C(=O)[C@@]5(C=C1)CC[C@H]1C(C)(C)CCC[C@]16C[C@]25[C@@]43O6
- selectivity ratio [1]: 1.9
- selectivity ratio [2]: 3.6
- IC50 at 72 h [3]: 26.3 µM
- selectivity ratio [4]: 0.4
- IC50 (Leishmania donovani): 14.3 µM
- IC50 (Plasmodium falciparum): 0.03 µM
- IC50 (Trypanosoma cruzi): 7.1 µM
- selectivity ratio [5]: 843
- IC50 [6]: 58.6 µM

Continued, in another order:

- IC50 (Leishmania donovani): 27.2 µM
- IC50 (Plasmodium falciparum): 0.89 µM
- IC50 (Trypanosoma cruzi): 15.6 µM
- IC50 [6]: 32.1 µM
SMILES: CC1=CC[C@]23CC[C@H]4C(C)(C)CCC[C@]45C[C@]24C1=C[C@H]1C(C)(C)OC(=C(C(C)C)C3=O)[C@@]14O5
- selectivity ratio [1]: 0.9
- selectivity ratio [2]: 1.5
- IC50 at 72 h [3]: 23.9 µM
- selectivity ratio [4]: 0.7
- selectivity ratio [5]: 26.8

- IC50 (Leishmania donovani): 41.2 µM
- IC50 (Plasmodium falciparum): 2.6 µM
- IC50 (Trypanosoma cruzi): 33.3 µM
- IC50 [6]: 25.8 µM
SMILES: CC(C)C1=C2OC(C)(C)[C@@H]3CC4[C@H](C)[C@@H](O)C[C@@]5(CC[C@H]6C(C)(C)CCC[C@]67C[C@]45[C@@]23O7)C1=O (some centres undefined)
- selectivity ratio [1]: 3.3
- selectivity ratio [2]: 4.1
- IC50 at 72 h [3]: 136 µM
- selectivity ratio [4]: 5.3
- selectivity ratio [5]: 53.1

- IC50 (Leishmania donovani): 6 µM
- IC50 (Plasmodium falciparum): 0.08 µM
- IC50 (Trypanosoma cruzi): 8.4 µM
- IC50 [6]: 10.1 µM
SMILES: CC1=CC[C@]23CC[C@H]4C(C)(C)CCC[C@]45C[C@]24[C@@]1(O)C[C@H]1C(C)(C)OC(=C(C(C)C)C3=O)[C@@]14O5
- selectivity ratio [1]: 1.1
- selectivity ratio [2]: 0.8
- IC50 at 72 h [3]: 6.9 µM
- selectivity ratio [4]: 0.7
- selectivity ratio [5]: 80

- IC50 (Leishmania donovani): 10 µM
- IC50 (Plasmodium falciparum): 5.1 µM
- IC50 (Trypanosoma cruzi): 19 µM
- IC50 [6]: 39 µM
SMILES: CC(C)C1=C2OC(C)(C)[C@@H]3CC4[C@@H](C)[C@H](O)C[C@@]5(CC[C@H]6C(C)(C)CCC[C@]67C[C@]45[C@@]23O7)C1=O (some centres undefined)
- selectivity ratio [1]: 3.7
- selectivity ratio [2]: 1.9
- IC50 at 72 h [3]: 36.7 µM
- selectivity ratio [4]: 0.9
- selectivity ratio [5]: 7.1
